From patent US20240342292A1, “Compounds for the Degradation of EGFR Kinase” (BeiGene Switzerland GmbH, priority 2021, published 2024)

Assays:
[1] = target: T1, L858R/T790M/C797S EGFR (Homo sapiens, UniProt P00533, C797S/L858R/T790M); test: EGFR degradation HTRF assay in H1975-clone #25 (LTC) cells; assay type: cell-based; settings: 16h treatment; for DC50: H1975 # 25-LTC (L858R/T790M/C797S), HTRF; for Dmax: NCI-H1975, H1975 # 25-LTC (L858R/T790M/C797S), maximum percentage of degradation
T1 construct: expressed in transfected cells; host or cells: H1975 clone #25 (lentiviral over-expression, endogenous EGFR knocked out by sgRNA)
T1 sequence (P00533 25-1210 T790M/C797S/L858R): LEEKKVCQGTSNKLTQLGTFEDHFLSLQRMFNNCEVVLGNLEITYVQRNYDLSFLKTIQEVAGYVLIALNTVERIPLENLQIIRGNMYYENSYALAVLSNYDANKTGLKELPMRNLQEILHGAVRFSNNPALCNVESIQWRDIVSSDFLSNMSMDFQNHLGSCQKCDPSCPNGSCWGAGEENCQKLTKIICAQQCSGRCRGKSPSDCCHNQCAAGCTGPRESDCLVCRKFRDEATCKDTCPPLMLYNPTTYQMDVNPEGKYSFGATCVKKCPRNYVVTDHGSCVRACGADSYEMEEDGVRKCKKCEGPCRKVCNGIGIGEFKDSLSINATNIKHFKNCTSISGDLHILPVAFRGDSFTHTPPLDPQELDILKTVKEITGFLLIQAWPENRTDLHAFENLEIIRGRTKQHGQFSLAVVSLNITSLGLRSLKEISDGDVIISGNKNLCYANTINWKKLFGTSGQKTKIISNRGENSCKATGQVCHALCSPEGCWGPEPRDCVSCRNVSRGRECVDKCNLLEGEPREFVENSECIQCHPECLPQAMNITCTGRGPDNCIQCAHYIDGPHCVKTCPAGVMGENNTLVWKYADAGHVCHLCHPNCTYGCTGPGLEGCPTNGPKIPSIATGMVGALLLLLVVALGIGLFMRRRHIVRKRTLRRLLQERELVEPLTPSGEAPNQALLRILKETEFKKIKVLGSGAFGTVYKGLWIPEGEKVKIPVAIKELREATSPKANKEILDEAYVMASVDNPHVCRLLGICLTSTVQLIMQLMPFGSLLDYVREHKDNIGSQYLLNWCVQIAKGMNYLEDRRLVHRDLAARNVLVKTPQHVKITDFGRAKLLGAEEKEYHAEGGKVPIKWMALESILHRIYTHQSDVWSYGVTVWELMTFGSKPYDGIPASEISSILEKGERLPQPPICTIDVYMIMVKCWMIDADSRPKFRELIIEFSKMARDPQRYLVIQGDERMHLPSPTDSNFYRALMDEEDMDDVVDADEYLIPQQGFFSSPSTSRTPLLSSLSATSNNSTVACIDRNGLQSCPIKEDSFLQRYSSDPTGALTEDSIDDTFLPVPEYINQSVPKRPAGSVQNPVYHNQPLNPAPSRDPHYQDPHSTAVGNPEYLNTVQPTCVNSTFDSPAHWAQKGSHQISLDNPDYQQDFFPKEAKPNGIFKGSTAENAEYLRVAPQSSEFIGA
How it was run: (§1)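 H1975 clones with endogenous EGFR knocked out and lentivirally expressed mutant EGFR treated 16 h at 37 °C with compounds, 8 doses from 10 uM, 5-fold dilutions, 0.2% DMSO. Lysates read by HTRF (665/620 nm) overnight; DC50 from four-parameter fit.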

[2] = test system: Del19/T790M/C797S EGFR; test: EGFR degradation HTRF assay in H1975-clone #28 (DTC) cells; assay type: cell-based; settings: H1975 # 28 DTC (Del19/T790M/C797S), 16h treatment; for DC50: HTRF; for Dmax (%): maximum percentage of degradation
How it was run: as §1

DC50 [1] [nM] | Dmax [1] [%] | DC50 [2] [nM] | Compound | Dmax (%) [2] [%]
0.584 | 92.4 | 0.606 | CO[C@@H]1CN(CCc2cc(F)c([C@H]3CCC(=O)NC3=O)c(F)c2)CC[C@@H]1N(C)C(=O)c1ccc2c(c1)N1C[C@H](C)CCCOc3c(cnn3C)-c3cc(cc(C)n3)C(=O)/N=C/1N2 [Example 252, (R,E)-N—((3R,4S)-1-(4-((R)-2,6-dioxopiperidin-3-yl)-3,5-difluorophenethyl)-3-methoxypiperidin-4-yl)-N,1^1,2^6,7-tetramethyl-3-oxo-5^2,5^3-dihydro-1^1H,5^1H-11-oxa-4-aza-5(2,1)-benzo[d]imidazola-2(2,4) -pyridina-1(4,5)-pyrazolacycloundecaphane-5^4-carboxamide] | 77.32
0.289 | 93.8 | 0.59 | CO[C@@H]1CN(CCc2cc(F)c([C@H]3CCC(=O)NC3=O)c(F)c2)CC[C@H]1NC(=O)c1ccc2c(c1)N1C[C@H](C)CCCOc3c(cnn3C)-c3cc(cc(C)n3)C(=O)/N=C/1N2 [Example 253, (R,E)-N—((3R,4R)-1-(4-((R)-2,6-dioxopiperidin-3-yl)-3,5-difluorophenethyl)-3-methoxypiperidin-4-yl)-1^1,2^6,7-trimethyl-3-oxo-5^2,5^3-dihydro-1^1H,5^1H-11-oxa-4-aza-5(2,1)-benzo[d]imidazola-2(2,4)-pyridina-1(4,5)-pyrazolacycloundecaphane-5^6-carboxamide] | 82.5
0.91 | 91.2 | 0.624 | CO[C@@H]1CN(CCc2cc(F)c([C@H]3CCC(=O)NC3=O)c(F)c2)CC[C@H]1N(C)C(=O)c1ccc2c(c1)N1C[C@H](C)CCCOc3c(cnn3C)-c3cc(cc(C)n3)C(=O)/N=C/1N2 [Example 254, (R,E)-N—((3R,4R)-1-(4-((R)-2,6-dioxopiperidin-3-yl)-3,5-difluorophenethyl)-3-methoxypiperidin-4-yl)-N,1^1,2^6,7-tetramethyl-3-oxo-5^2,5^3-dihydro-1^1H,5^1H-11-oxa-4-aza-5(2,1)-benzo[d]imidazola-2(2,4) -pyridina-1(4,5)-pyrazolacycloundecaphane-5^6-carboxamide] | 86.3
0.599 | 91.1 | 0.566 | CO[C@H]1CN(CCc2cc(F)c([C@H]3CCC(=O)NC3=O)c(F)c2)CC[C@H]1N(C)C(=O)c1ccc2c(c1)N1C[C@H](C)CCCOc3c(cnn3C)-c3cc(cc(C)n3)C(=O)/N=C/1N2 [Example 255, (R,E)-N—((3S,4R)-1-(4-((R)-2,6-dioxopiperidin-3-yl)-3,5-difluorophenethyl)-3-methoxypiperidin-4-yl)-N,1^1,2^6,7-tetramethyl-3-oxo-5^2,5^3-dihydro-1^1H,5^1H-11-oxa-4-aza-5(2,1)-benzo[d]imidazola-2(2,4) -pyridina-1(4,5)-pyrazolacycloundecaphane-5^6-carboxamide] | 81.82
0.326 | 88.1 | 0.608 | Cc1cc2cc(n1)-c1cnn(C)c1OCCC[C@@H](C)CN1/C(=N/C2=O)Nc2ccc(C(=O)N(C)[C@H]3CCN(CCc4cc(F)c([C@H]5CCC(=O)NC5=O)c(F)c4)C[C@H]3C)cc21 [Example 256, (R,E)-N-((3R,4S)-1-(4-((R)-2,6-dioxopiperidin-3-yl)-3,5-difluorophenethyl)-3-methylpiperidin-4-yl) -N,1^1,2^6,7-tetramethyl-3-oxo-5^2,5^3-dihydro-1^1H,5^1H-11-oxa-4-aza-5(2,1)-benzo[d]imidazola-2(2,4)-pyridina-1(4,5)-pyrazolacycloundecaphane-5^6-carboxamide] | 83.08
